Columns and labels:
Test in all cases: combination Emax (second highest fraction inhibited in the dose matrix, 72 h); higher = more inhibition; extreme values may be limits of the assay
[1] = tested on: ESS-1 (Other Solid Carcinomas)
Method in brief: (§1)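 Cell lines in DMEM/F12 or RPMI with 10% FBS were plated in 1536-well plates, held 24 hours at 37°C, 5% CO2, then given two-drug dose matrices for 72 hours (DMSO typically 0.2%). Viability was read by CellTiter-Glo 2.0 luminescence and scaled as inhibition from 0 (vehicle wells) to 1 (blank wells). Combination Emax is the second-highest inhibition in the matrix; Bliss excess is observed combination effect minus expected EA + EB − EA·EB, EA and EB being single-agent effects.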

[2] = tested on: HH (T-Cell Non-Hodgkin's Lymphoma)
Method in brief: as §1

[3] = tested on: SNU-449 (Hepatocellular Carcinoma)
Method in brief: as §1

[4] = tested on: LS-123 (Colorectal Carcinoma)
Method in brief: as §1

[5] = tested on: SAS (Oral Cavity Carcinoma)
Method in brief: as §1

[6] = tested on: OE21 (Esophageal Squamous Cell Carcinoma)
Method in brief: as §1

[7] = tested on: SW1573 (Lung Adenocarcinoma)
Method in brief: as §1

[8] = tested on: ALL-PO (B-Lymphoblastic Leukemia)
Method in brief: as §1

GAMG (Glioblastoma) = tested on: GAMG (Glioblastoma)
Method in brief: as §1

[9] = tested on: LCLC-97TM1 (Non-Small Cell Lung Carcinoma)
Method in brief: as §1

NCI-H2722 (Mesothelioma) = tested on: NCI-H2722 (Mesothelioma)
Method in brief: as §1

[10] = tested on: BE-13 (T-Lymphoblastic Leukemia)
Method in brief: as §1

[11] = tested on: BFTC-909 (Kidney Carcinoma)
Method in brief: as §1

[12] = tested on: SNU-16 (Gastric Carcinoma)
Method in brief: as §1

BPH-1 (Non-Cancerous) = tested on: BPH-1 (Non-Cancerous)
Method in brief: as §1

[13] = tested on: HuH-7 (Hepatocellular Carcinoma)
Method in brief: as §1

[14] = tested on: YAPC (Pancreatic Carcinoma)
Method in brief: as §1

[15] = tested on: L-428 (Hodgkin's Lymphoma)
Method in brief: as §1

[16] = tested on: HeLa (Cervical Carcinoma)
Method in brief: as §1

KS-1 (Glioblastoma) = tested on: KS-1 (Glioblastoma)
Method in brief: as §1

| SMILES | combination Emax [1] | combination Emax [2] | combination Emax [3] | combination Emax [4] | combination Emax [5] | combination Emax [6] | combination Emax [7] | combination Emax [8] | combination Emax (GAMG (Glioblastoma)) | combination Emax [9] | combination Emax (NCI-H2722 (Mesothelioma)) | combination Emax [10] | combination Emax [11] | combination Emax [12] | combination Emax (BPH-1 (Non-Cancerous)) | combination Emax [13] | combination Emax [14] | combination Emax [15] | combination Emax [16] | combination Emax (KS-1 (Glioblastoma)) |
| --- | --- | --- | --- | --- | --- | --- | --- | --- | --- | --- | --- | --- | --- | --- | --- | --- | --- | --- | --- | --- |
| COc1cc2ncnc(Nc3ccc(F)c(Cl)c3)c2cc1OCCCN1CCOCC1 [Gefitinib] + CC(C)n1c(=O)n(C)c2cnc3cc(F)c(-c4ccc(OCCCN5CCCCC5)nc4)cc3c21 [AZD1390] (first compound max 10 µM, 7x7, partner max 0.3 µM) | 0.153 | 0.221 | 0.249 | 0.226 | 0.401 | 0.499 | 0 | 0.59 | 0.106 | 0.0902 | 0.0368 | 0.266 | 0.184 | 0.36 | 0.556 | 0.114 | 0.197 | 0.353 | 0.0627 | 0.0732 |
| Cc1cc2ncnn2cc1Nc1ncc2c(n1)n(C1CCOCC1)c(=O)n2C [AZD7648] + C[C@@H]1COCCN1C2=NC(=NC(=C2)C3(CC3)[S@](=N)(=O)C)C4=C5C=CNC5=NC=C4 [AZD6738] (first compound max 10 µM, 7x7, partner max 10 µM) | 0.971 | 0.337 | 0.279 | 0.619 | 0.856 | 0.74 | 0.229 | 0.925 | 0.681 | 0.84 | 0.347 | 0.757 | 0.835 | 0.984 | 0.429 | 0.215 | 0.335 | 0.794 | 0.575 | 0.595 |
| Cc1cc2ncnn2cc1Nc1ncc2c(n1)n(C1CCOCC1)c(=O)n2C [AZD7648] + CN(C)CCCOc1ccc(-c2ccc3ncc4c(c3c2)n(C2CCOCC2)c(=O)n4C)cn1 [AZD0156] (first compound max 10 µM, 7x7, partner max 1 µM) | 0.481 | 0.285 | 0.282 | 0.34 | 0.307 | 0.554 | 0.164 | 0.265 | 0.402 | 0.159 | 0.209 | 0.323 | 0.338 | 0.239 | 0.378 | 0.201 | 0.209 | 0.37 | 0.204 | 0.245 |
| Cc1cc2ncnn2cc1Nc1ncc2c(n1)n(C1CCOCC1)c(=O)n2C [AZD7648] + CCN(CCO)CCCOc1ccc2c(Nc3cc(CC(=O)Nc4cccc(F)c4)[nH]n3)ncnc2c1 [AZD2811] (first compound max 10 µM, 7x7, partner max 1 µM) | 0.665 | 0.245 | 0.318 | 0.309 | 0.255 | 0.492 | 0.287 | 0.979 | 0.514 | 0.44 | 0.291 | 0.764 | 0.384 | 0.569 | 0.614 | 0.23 | 0.271 | 0.347 | 0.285 | 0.4 |
| COc1cc2c(cc1OCCCCCOc1cc3c(cc1OC)C(=O)N1C=C(C)C[C@H]1C=N3)N=C[C@@H]1CC(C)=CN1C2=O [SG3199] + O=C(c1cc(Cc2n[nH]c(=O)c3ccccc23)ccc1F)N1CCN(C(=O)C2CC2)CC1 [Olaparib] (first compound max 0.001 µM, 7x7, partner max 10 µM) | 0.346 | 0 | 0.0573 | 0.187 | 0.164 | 0.133 | 0.102 | 0.646 | 0.104 | 0.12 | 0.134 | 0.283 | 0.0989 | 0.363 | 0.354 | 0.12 | 0.0017 | 0.0689 | 0.159 | 0.127 |
| Cc1cc2ncnn2cc1Nc1ncc2c(n1)n(C1CCOCC1)c(=O)n2C [AZD7648] + O=C(c1cc(Cc2n[nH]c(=O)c3ccccc23)ccc1F)N1CCN(C(=O)C2CC2)CC1 [Olaparib] (first compound max 10 µM, 7x7, partner max 10 µM) | 0.402 | 0.22 | 0.0839 | 0.297 | 0.213 | 0.354 | 0.243 | 0.608 | 0.11 | 0.199 | 0.225 | 0.255 | 0.305 | 0.463 | 0.515 | 0.198 | 0.0464 | 0.172 | 0.22 | 0.162 |
| Cc1nc(Nc2ncc(C(=O)Nc3c(C)cccc3Cl)s2)cc(N2CCN(CCO)CC2)n1 [Dasatinib] + CC(=O)Nc1cccc(-n2c(=O)n(C3CC3)c(=O)c3c(Nc4ccc(I)cc4F)n(C)c(=O)c(C)c32)c1 [Trametinib] (first compound max 2 µM, 7x7, partner max 1 µM) | 0.776 | 0.216 | 0.691 | 0.928 | 0.713 | 0.723 | 0.18 | 0.451 | 0.476 | 0.904 | 0.487 | 0.607 | 0.35 | 0.532 | 0.744 | 0.662 | 0.7 | 0.128 | 0.241 | 0.641 |
| C[C@@H](c1ccc2nccn2c1)n1nnc2ncc(-c3cnn(C)c3)nc21 [Savolitinib] + CC1(C)CCC(CN2CCN(c3ccc(C(=O)NS(=O)(=O)c4ccc(NCC5CCOCC5)c([N+](=O)[O-])c4)c(Oc4cnc5[nH]ccc5c4)c3)CC2)=C(c2ccc(Cl)cc2)C1 [Venetoclax] (first compound max 1 µM, 7x7, partner max 1 µM) | 0.136 | 0.134 | 0.157 | 0.148 | 0.138 | 0.0581 | 0.052 | 0.337 | 0.202 | 0.0631 | 0.159 | 0.196 | 0.242 | 0.129 | 0.136 | 0.15 | 0.113 | 0.117 | 0.147 | 0.152 |
